Data from publication PMC3894558, “Chemical signatures and new drug targets for gametocytocidal drug development” (Scientific Reports, 2014).
Where two headings read alike, the source gives them in different places.

Tested on: P. falciparum 3D7 gametocytes
Test: alamarBlue gametocyte viability assay, strain 3D7
Type: cell-based, Plasmodium falciparum
Conditions: for Max Resp: DMSO set at 0%, 100 nM epoxomicin set at -100%; call rule not given here
[1] = Malaria Box, stages III-V 3D7 gametocytes
[2] = Malaria Box, stages III-V 3D7 gametocytes, 11 concentrations, 1:3 dilution, read-out: IC50
[3] = Malaria Box, stages III-V 3D7 gametocytes, 11 concentrations, 1:3 dilution

SMILES	Max Resp (Malaria Box) [%]	Curve Class [1]	IC50 [2] [µM]	IC50 [3]	reduction of gametocyte viability (Malaria Box screen) [%]	IC50 (P. falciparum 3D7 gametocytes, mean of at least 3 independent experiments, read-out: Gametocyte IC50) [µM]
O=C(NCCCN1CCC(N2CCCCC2)CC1)C1=Cc2cc(Br)ccc2OC1 [MMV019995]	-99	-1.1	5.26	–	–	–
Cc1cc(=O)oc2c1ccc1oc(C(=O)c3ccccc3)c(C)c12 [MMV006753]	3	4	–	Inactive	–	–
CC(C)(C)CC(C)(C)NCC(O)COc1ccc2c(c1)CCC2.Cl (centres unmarked) [MMV665817]	-107	-2.1	9.35	–	–	–
Cc1ccc(-c2nc3ccccc3o2)cc1NCc1cc(Cc2ccccc2)ccc1O [MMV020912]	-63	-2.2	23.5	–	–	–
COc1cccc(Nc2nc(N)c3ccccc3n2)c1.Cl [MMV019199]	-66	-2.2	23.5	–	–	–
CCOC(=O)C1=CN(C)C=C(C(=O)OCC)C1c1cc(Br)c(OCC)c(OC)c1 [MMV006656]	-72	-2.2	14.8	–	–	–
CCCc1cc(O)c2c3c(c(=O)oc2c1)CN(C)CC3 [MMV665841]	-28	-1.2	0.662	–	–	–
O=C(NC1CCCCC1)C(c1cccs1)N(CCc1ccccc1)C(=O)c1ccco1 (centres unmarked) [MMV666106]	-29	4	–	Inactive	–	–
CCCN(CCC)CCCNC(=O)c1cc2c(-c3ccc(OC)c(OC)c3)nn(C)c2s1 [MMV000561]	-52	-2.2	–	Inactive	–	–
Cc1cc(N(C)C)nc(Nc2ccc(NC(=O)Nc3ccccc3)cc2)n1 [MMV020243]	-73	-2.2	11.8	–	–	–
Oc1ccccc1CN1CCC2(CCCN(Cc3ccccc3F)C2)C1 (centres unmarked) [MMV666116]	-46	-1.2	0.662	–	–	–
COc1ccc(CCn2c(=N)c(C(=O)NCc3cccnc3)cc3c(=O)n4cccc(C)c4nc32)cc1 [MMV667488]	-32	-1.2	2.64	–	–	–
COc1cccc(-c2nn(C)c3sc(C(=O)NCCN4CCN(c5ccccc5F)CC4)cc23)c1 [MMV019064]	-42	-2.2	–	Inactive	–	–
COc1ccccc1CNC(=O)CCn1c(=O)[nH]c2ccccc2c1=O [MMV665916]	-1	4	–	Inactive	–	–
CC1CC(C)CN(C(=O)c2ccc(Cl)cc2Cl)C1 (centres unmarked) [MMV001344]	-13	4	–	Inactive	–	–
CCOC(=O)c1c(C)n(-c2ccccc2)c2ccc(OC(=O)c3cc(OC)c(OC)c(OC)c3)cc12 [MMV396664]	-4	4	–	Inactive	–	–
COc1ccc(CN2CCCC(C(=O)c3ccc(C(F)(F)F)cc3)C2)c(O)c1 (centres unmarked) [MMV666060]	-45	-1.2	1.05	–	–	–
CC(C)(C)c1ccc(C(=O)Nc2nc3ccccc3s2)cc1 [MMV142383]	-10	4	–	Inactive	–	–
OCCNc1nc(Nc2ccc(Cl)c(Cl)c2)nc2ccccc12 [MMV001041]	-63	-2.2	14.8	–	–	–
CCCCCCc1cc(O)c2c3c(c(=O)oc2c1)CCC(C)C3 (centres unmarked) [MMV665987]	0	4	–	Inactive	–	–
Oc1c(C(Nc2ccccn2)c2cccc(Oc3ccccc3)c2)ccc2cccnc12 (centres unmarked) [MMV665814]	-107	-2.1	9.35	–	–	–
COc1ccc(-n2ccnc2SCC(=O)Nc2cc(C)ccc2C)c(OC)c1 [MMV019258]	-8	4	–	Inactive	–	–
CCOc1c(Br)cc(C2C(C(=O)OC)=CN(C)C=C2C(=O)OC)cc1OC [MMV006764]	-76	-2.2	14.8	–	–	–

SMILES	Max Resp (Malaria Box) [%]	Curve Class [1]	IC50 [2] [µM]	IC50 [3]	reduction of gametocyte viability (Malaria Box screen) [%]	IC50 (P. falciparum 3D7 gametocytes, mean of at least 3 independent experiments, read-out: Gametocyte IC50) [µM]
Cc1sc(NC(=O)c2ccco2)c(C(c2cccnc2)N2CCC(Cc3ccccc3)CC2)c1C (centres unmarked) [MMV396663]	-85	-2.1	16.6	–	–	–
O=C(NNc1cc(N2CCCC2)nc(N2CCCC2)n1)c1ccccc1 [MMV396770]	-93	-2.1	10.5	–	–	–
O=C1c2ccccc2C2=Nc3ccccc3SC(c3cccc(F)c3)C12 (centres unmarked) [MMV006389]	8	4	–	Inactive	–	–
CCOc1ccc(-n2cc(-c3ccccc3)c3c(SCc4cc(C)ccc4C)ncnc32)cc1 [MMV085471]	1	4	–	Inactive	–	–
Cc1cc(C)c2c(c1)OCN(Cc1ccccc1Cl)C2 [MMV006558]	-44	-1.2	0.935	–	–	–
COc1ccc(C2c3ccc4ccccc4c3Oc3ncn(CCCN(C)C)c(=N)c32)cc1 (centres unmarked) [MMV667491]	-95	-1.1	2.64	–	–	–
CC1=C(CC(=O)c2cccc([N+](=O)[O-])c2)C(=O)c2ccccc2C1=O [MMV666125]	-116	-1.1	0.833	–	> 75	< 1
COc1ccc(C2C(C(=O)Nc3cccc(OC)c3)c3ccccc3C(=O)N2C2CCCCC2)cc1 (centres unmarked) [MMV008455]	-89	-2.1	16.6	–	–	–
COCCNCC(O)Cn1c2ccc(Cl)cc2c2cc(Cl)ccc21 (centres unmarked) [MMV019017]	-94	-1.1	2.64	–	–	–
O=C(NCC(c1ccsc1)N1CCCCCC1)c1ccc(C(F)(F)F)cc1 (centres unmarked) [MMV396672]	-37	-2.2	–	Inactive	–	–
CCN(CC)c1ccc(NC(=O)c2cccs2)cc1 [MMV009060]	20	4	–	Inactive	–	–
Cc1ccc(NC(=O)Nc2cccc(Cl)c2)cc1F [MMV000911]	-36	-2.2	–	Inactive	–	–
CCN(CC)CCNc1ccnc2cc(Cl)ccc12 [MMV006087]	-66	-1.2	0.372	–	–	–
COc1cc(OC)c(N(C)C(=O)c2cc3c(s2)-c2ccccc2S(=O)(=O)C3)cc1Cl [MMV006427]	-74	-2.2	11.8	–	–	–
COc1ccccc1CNC(=O)C1c2ccccc2C(=O)N(CC(C)C)C1c1cccs1 (centres unmarked) [MMV000648]	-46	-2.2	–	Inactive	–	–
CCOc1ccc(N2C(N)=NC(N)=NC2(C)C)cc1.Cl [MMV667486]	-4	4	–	Inactive	–	–
COc1ccc(C2=C(c3ccc(OC)cc3)C3(c4ccccc4)C(=O)C2(c2ccccc2)C2C(=O)N(c4ccc(C)cc4)C(=O)C23)cc1 (centres unmarked) [MMV666101]	1	4	–	Inactive	–	–
COc1ccc(OC)c(C2C3=C(CC(C)(C)CC3=O)N(c3ccc(Cl)c(Cl)c3)C3=C2C(=O)CC(C)(C)C3)c1 [MMV007208]	-28	4	–	Inactive	–	–
COc1ccccc1N1CCN(C(CNS(=O)(=O)c2ccc(Cl)cc2)c2cccnc2)CC1 (centres unmarked) [MMV665914]	-63	-2.2	29.6	–	–	–
CCOC(=O)c1cnc2c(C)cc(C)cc2c1Nc1ccc(OC)c(OC)c1 [MMV008294]	-8	4	–	Inactive	–	–
FC(F)(F)c1cccc(CNC2CCN(CCc3ccccc3)CC2)c1 [MMV665979]	-89	-2.1	14.8	–	–	–
Br.CCn1c2c(c(=N)c3c1CCC3)CCCC2 [MMV000340]	-49	-2.2	–	Inactive	–	–
Clc1ccc2[nH]c3c(NCCCN4CCOCC4)ncnc3c2c1 [MMV006587]	-49	-2.2	–	Inactive	–	–
